The record followed here is patent US8759334B2, “Compounds useful for the treatment of metabolic and inflammatory diseases” (Galapagos NV, priority 2011, dated 2014).

In general, IC50 refers to the concentration needed to halve the response being measured.

In test [1] the target is T1, GPR43 (Homo sapiens, UniProt O15552).
T1 construct: expressed in transfected cells
T1 sequence (O15552 1-330): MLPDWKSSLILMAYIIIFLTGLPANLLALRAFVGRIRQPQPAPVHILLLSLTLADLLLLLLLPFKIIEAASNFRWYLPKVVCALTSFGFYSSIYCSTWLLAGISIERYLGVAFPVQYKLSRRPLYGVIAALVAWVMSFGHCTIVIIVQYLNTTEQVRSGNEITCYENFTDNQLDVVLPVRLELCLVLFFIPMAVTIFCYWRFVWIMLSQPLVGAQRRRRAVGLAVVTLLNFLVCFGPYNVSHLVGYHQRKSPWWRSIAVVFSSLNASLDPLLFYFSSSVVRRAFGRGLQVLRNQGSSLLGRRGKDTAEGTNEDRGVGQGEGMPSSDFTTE
Nature of the test: Calcium mobilization assay without probenecid. The following applies: GPR43 stably expressing cells, triggered with sodium acetate at EC80, read-out: GPR43 assay without probenicid IC50. Type of test: cell-based. The method, then:
The following assay can be used for determination of GPR43 activation. The assay measures intracellular calcium release induced by activation of GPR43. On day 1, GPR43 stably expressing cells were detached with mild trypsinization (Trypsin, 0.25% with EDTA 4Na, 5× diluted in PBS) centrifuged at 1000 rpm for 5 min and resuspended at 6.000 cells/25 μL medium (DMEM supplemented with 10% FBS, 10 μg/mL puromycin and 1% Pen/Strep). The cells were distributed in poly-D-lysine coated 384 well plates (black with clear bottom, 25 μL/well) and incubated overnight at 37° C. 10% CO2. On day 2, 25 μL of a fluorescent Ca^2+ indicator (Calcium 4 assay; Molecular Devices) was added on top of the cells and incubated for 2 h at 37° C. Subsequently, compounds at increasing concentration (10 μL/well) were added to the plate and incubated for 15 min at 37° C. Finally the cells were triggered with sodium acetate at EC80 concentration (concentration which gives 80% of the activity of the GPR43) and the Ca-flux was measured simultaneously to the trigger injection on a fluorescence plate reader (FlexStation3), this measures the antagonist activity of the compounds. To measure agonist activity of the compounds, compound was added to the well and the Ca-flux was measured simultaneously to the injection of compound.
For orientation: A change in cytosolic calcium serves as a functional read-out for many receptors and channels.

Test [2] concerns the target T1, GPR43. Briefly: Calcium mobilization assay with probenecid. Type of test: cell-based. To be noted: GPR43 stably expressing cells; triggered with sodium acetate at EC80; 2.5 mM probenecid; read-out: GPR43 assay with probenicid IC50. Summed up: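 […] being added at rising concentrations to a GPR43 stable line. Before this, cells were dye-loaded (Calcium 4 with 2.5 mM probenecid) for 2 h at 37 °C after overnight plating.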

Take `CC1(C(=O)NCc2ccc(Cl)cc2)CCN1C(=O)Cc1ccc(Cl)cc1Cl` (centres unmarked) [Compound 1, 1-[2-(2,4-Dichloro-phenyl)-acetyl]-2-methyl-azetidine-2-carboxylic acid 4-chloro-benzylamide]: the IC50 at GPR43 [1] was in the range of 101 to 500 nM. On the same count and under the same terms, for `Cc1cc(C)cc(CC(=O)N2CCC2(C)C(=O)N(C)Cc2ccc(Cl)cc2)c1` (centres unmarked) [Compound 3, 1-[2-(3,5-Dimethyl-phenyl)-acetyl]-2-methyl-azetidine-2-carboxylic acid (4-chloro-benzyl)-methyl-amide] the value was over 1000 nM. Still for that read-out and setting: for `CN(Cc1ccc(Cl)cc1)C(=O)C1(C)CCN1C(=O)Cc1cccc(I)c1` (centres unmarked) [Compound 8, 1-[2-(3-iodo-phenyl)-acetyl]-2-methyl-azetidine-2-carboxylic acid (4-chloro-benzyl)-methyl-amide] the value was 501 to 1000 nM; for `CN(Cc1ccc(Cl)cc1)C(=O)C1(C)CCN1C(=O)Cc1csc2ccccc12` (centres unmarked) [Compound 13, 1-(2-Benzo[b]thiophen-3-yl-acetyl)-2-methyl-azetidine-2-carboxylic acid (4-chloro-benzyl)-methyl-amide], 101 to 500 nM; for `CN(Cc1ccc(Cl)cc1)C(=O)C1(C)CCN1C(=O)Cc1ccc2ccccc2c1` (centres unmarked) [Compound 14, 2-Methyl-1-(2-naphthalen-2-yl-acetyl)-azetidine-2-carboxylic acid (4-chloro-benzyl)-methyl-amide], 501 to 1000 nM.

Turning to `Cc1cc(C)cc(CC(=O)N2CCC2(C)C(=O)N(CCO)Cc2ccc(Cl)cc2)c1` (centres unmarked) [Compound 47, 1-[2-(3,5-Dimethyl-phenyl)-acetyl]-2-methyl-azetidine-2-carboxylic acid (4-chloro-benzyl)-(2-hydroxy-ethyl)-amide], at GPR43 [1], the IC50 lay in the range of 101 to 500 nM. As to `COC(=O)CCN(Cc1ccc(Cl)cc1)C(=O)C1(C)CCN1C(=O)Cc1cc(C)cc(C)c1` (centres unmarked) [Compound 62, 3-((4-Chloro-benzyl)-{1-[2-(3,5-dimethyl-phenyl)-acetyl]-2-methyl-azetidine-2-carbonyl}-amino)-propionic acid methyl ester], the 50% inhibitory concentration (IC50) at GPR43 [1] lay within 501 to 1000 nM.

For the molecule `Cc1cc(C)cc(CC(=O)N2CCC2(C)C(=O)N(CCCC(=O)O)Cc2ccc(Cl)cc2)c1` (centres unmarked) [Compound 64, 4-((4-Chloro-benzyl)-{1-[2-(3,5-dimethyl-phenyl)-acetyl]-2-methyl-azetidine-2-carbonyl}-amino)-butyric acid], the IC50 on GPR43 [1] is 101 to 500 nM.

Take `Cc1cc(C)cc(CC(=O)N2CCC2(C)C(=O)N(CCC(=O)O)Cc2ccc(Cl)cc2)c1` (centres unmarked) [Compound 65, 3-((4-chloro-benzyl)-{1-[2-(3,5-dimethyl-phenyl)-acetyl]-2-methyl-azetidine-2-carbonyl}-amino)-propionic acid]: the IC50 on GPR43 [1] is over 1000 nM. `CC1(C(=O)N(CCCO)Cc2ccc(Cl)cc2)CCN1C(=O)Cc1csc2ccccc12` (centres unmarked) [Compound 70, 1-(2-Benzo[b]thiophen-3-yl-acetyl)-2-methyl-azetidine-2-carboxylic acid (4-chloro-benzyl)-(3-hydroxy-propyl)-amide]: the IC50 at GPR43 [1] fell in the range of 101 to 500 nM.

For the molecule `Cc1cc(C)cc(CC(=O)N2CC[C@@]2(C)C(=O)N(CC(=O)O)Cc2ccc(Cl)cc2)c1` [Compound 81a, ((4-Chloro-benzyl)-{(S)-1-[2-(3,5-dimethyl-phenyl)-acetyl]-2-methyl-azetidine-2-carbonyl}-amino)-acetic acid], the IC50 at GPR43 [1] was over 1000 nM. Still for that read-out and setting: in the case of `CN(Cc1ccc(Cl)cc1)C(=O)C1(C)CCN1C(=O)Cc1csc2ccc(Cl)cc12` (centres unmarked) [Compound 92, 1-[2-(5-Chloro-benzo[b]thiophen-3-yl)-acetyl]-2-methyl-azetidine-2-carboxylic acid (4-chloro-benzyl)-methyl-amide] it was over 1000 nM.

As to `CS(=O)(=O)NC(=O)CCCN(Cc1cccc(Cl)c1)C(=O)C1(Cc2ccccc2F)CCN1C(=O)c1csc2ccccc12` (centres unmarked) [Compound 243, 1-(benzo[b]thiophene-3-carbonyl)-N-(3-chlorobenzyl)-2-(2-fluorobenzyl)-N-(4-(methylsulfonamido)-4-oxobutyl)azetidine-2-carboxamide], at GPR43 [2], the IC50 fell in the range of 501 to 1000 nM. Same read-out and setting: in the case of `CC[C@]1(C(=O)N(CCCS(N)(=O)=O)[C@@H](C)c2ccc(Cl)cc2)CCN1C(=O)c1csc2ccccc12` [Compound 244, (R)-1-(benzo[b]thiophene-3-carbonyl)-N-((S)-1-(4-chlorophenyl)ethyl)-2-ethyl-N-(3-sulfamoylpropyl)azetidine-2-carboxamide] it was over 1000 nM. The same measure, in the same setting: in the case of `CC[C@@]1(C(=O)N(CCCS(N)(=O)=O)[C@@H](C)c2ccc(Cl)cc2)CCN1C(=O)c1csc2ccccc12` [Compound 245, (S)-1-(benzo[b]thiophene-3-carbonyl)-N-((S)-1-(4-chlorophenyl)ethyl)-2-ethyl-N-(3-sulfamoylpropyl)azetidine-2-carboxamide] it was 101 to 500 nM.

Consider `CCC1(C(=O)N(CCCS(N)(=O)=O)c2ccc(Cl)cc2)CCN1C(=O)c1csc2ccccc12` (centres unmarked) [Compound 246, 1-(benzo[b]thiophene-3-carbonyl)-N-(4-chlorophenyl)-2-ethyl-N-(3-sulfamoylpropyl)azetidine-2-carboxamide], for which, at GPR43 [2], the half-maximal inhibitory concentration (IC50) fell in the range of 101 to 500 nM. Same read-out and setting: in the case of `COc1ccccc1CC1(C(=O)N(CCCC(=O)O)Cc2cccc(Cl)c2)CCN1C(=O)c1csc2ccccc12` (centres unmarked) [Compound 247, 4-(1-(benzo[b]thiophene-3-carbonyl)-N-(3-chlorobenzyl)-2-(2-methoxybenzyl)azetidine-2-carboxamido)butanoic acid] it was over 1000 nM. Same read-out and setting: in the case of `CC1(C(=O)N(CCCC(=O)O)c2cccc(Cl)c2)CCN1C(=O)c1csc2ccccc12` (centres unmarked) [Compound 248, 4-(1-(benzo[b]thiophene-3-carbonyl)-N-(3-chlorophenyl)-2-methylazetidine-2-carboxamido)butanoic acid] it was 101 to 500 nM.

Turning to `CC1(C(=O)N(CCCC(=O)O)c2ccc(Cl)nc2)CCN1C(=O)c1csc2ccccc12` (centres unmarked) [Compound 249, 4-(1-(benzo[b]thiophene-3-carbonyl)-N-(6-chloropyridin-3-yl)-2-methylazetidine-2-carboxamido)butanoic acid], at GPR43 [2], the IC50 is over 1000 nM. On the same count and under the same terms, in the case of `CC1(C(=O)N(CCCC(=O)O)c2ccc(Cl)cn2)CCN1C(=O)c1csc2ccccc12` (centres unmarked) [Compound 250, 4-(1-(benzo[b]thiophene-3-carbonyl)-N-(5-chloropyridin-2-yl)-2-methylazetidine-2-carboxamido)butanoic acid] it was 501 to 1000 nM.

Consider `CC1(C(=O)N(CCCC(=O)O)c2cccc(C(F)(F)F)c2)CCN1C(=O)c1csc2ccccc12` (centres unmarked) [Compound 251, 4-(1-(benzo[b]thiophene-3-carbonyl)-2-methyl-N-(3-(trifluoromethyl)phenyl)azetidine-2-carboxamido)butanoic acid], for which the IC50 at GPR43 [2] is 101 to 500 nM. As to `CC1(C(=O)N(CCCC(=O)O)c2cc(Cl)ccn2)CCN1C(=O)c1csc2ccccc12` (centres unmarked) [Compound 252, 4-(1-(benzo[b]thiophene-3-carbonyl)-N-(4-chloropyridin-2-yl)-2-methylazetidine-2-carboxamido)butanoic acid], the IC50 on GPR43 [2] is 501 to 1000 nM. The same measure, in the same setting: for `CC1(C(=O)N(CCCC(=O)O)c2ccccn2)CCN1C(=O)c1csc2ccccc12` (centres unmarked) [Compound 253, 4-(1-(benzo[b]thiophene-3-carbonyl)-2-methyl-N-(pyridin-2-yl)azetidine-2-carboxamido)butanoic acid] the value was over 1000 nM.
